In USRE31731E, “Herbicidal 4-trifluoromethyl-4-nitrodiphenyl ethers” (priority 1978, dated 1984):

Legend:
Format in all cases: in vivo
Monocots [1] = assay: Herbicidal activity, preemergence, monocot weeds (Table II); settings: pre-emergence, 336 h, about 2 weeks, read-out: % control (percent of plants killed); for pest or weed control at 2241.7 g/ha: 2 lb./A.; for pest or weed control at 4483.4 g/ha: 4 lb./A.
Method: (§1) Using the procedure described below, diphenyl ethers were evaluated for control of the following weeds: […]
(§2) barnyardgrass (Echinochloa crusgalli) crabgrass (Digitaria spp.) nutsedge (Cyperus esculentus)
(§3) At 2 and 4 pounds per acre:
(§4) **Bermudagrass (Cynodon dactylon)
(§5) *downy brome (Bromus tectorum) foxtail (Setaria faberii)
(§6) Johnsongrass (Sorghum halepense) […]
(§7) quackgrass (Agropyron repens)
(§8) *ryegrass (Lolium perenne)
(§9) *yellow millet (Panicum miliaceum)
(§10) The following test procedure is employed. Seeds of selected crops and weeds are planted in soil in flats. For preemergence tests, the flats are treated with the test compound immediately after the planting. For postemergence tests, the seeds are allowed to germinate, and after 2 weeks the flats are treated with the test compound. The compound to be evaluated is dissolved in acetone, diluted with water, and sprayed over the flats using a carrier volume equivalent to 50 gallons per acre at the rate of application (pounds per acre, lb/A.) specified in the tables. About 2 weeks after the application of the test compound, the state of growth of the plants is observed and the phytotoxic effect of the compound is evaluated. Table II gives the average percent control achieved by the test compounds in terms of the percent of the plants which are killed by the compounds.

Dicots [2] = assay: Herbicidal activity, postemergence, dicot weeds (Table II); settings: post-emergence, 336 h, about 2 weeks, read-out: % control (percent of plants killed); for pest or weed control at 2241.7 g/ha: 2 lb./A.; for pest or weed control at 4483.4 g/ha: 4 lb./A.
Method: as §1
(§11) bindweed (Convolvulus arvensis) curly dock (Remex crispus) velvetleaf (Abutilon theophrasti) wild mustard (Brassica haber)
(§12) At 2 and 4 pounds per acre: […]
(§13) cocklebur (Xanthium pensylvanicum)
(§14) **coffeeweed (Sesbania macrocarpa)
(§15) *curly dock (Rumex crispus)
(§16) *lambsquarters (Chenopodium album) morningglory (Ipomoea purpurea)
(§17) *pigweed (Amaranthus retroflexus)
(§18) **ragweed (Ambrosia artemisiifolia)
(§19) *smartweed (Polygonum pensylvanicum)
(§20) **tomato (Lycopersicon esculentum)
(§21) *wild carrot (Daucus carota)
(§22) *wild mustard (Brassica haber)
as §10

Dicots [3] = assay: Herbicidal activity, preemergence, dicot weeds (Table II); settings: pre-emergence, 336 h, about 2 weeks, read-out: % control (percent of plants killed); for pest or weed control at 2241.7 g/ha: 2 lb./A.; for pest or weed control at 4483.4 g/ha: 4 lb./A.
Method: as §1, §11, §12, §13, §14, §15, §16, §17, §18, §19, §20, §21, §22, §10

Monocots [4] = assay: Herbicidal activity, postemergence, monocot weeds (Table II); settings: post-emergence, 336 h, about 2 weeks, read-out: % control (percent of plants killed); for pest or weed control at 2241.7 g/ha: 2 lb./A.; for pest or weed control at 4483.4 g/ha: 4 lb./A.
Method: as §1, §2, §3, §4, §5, §6, §7, §8, §9, §10

Row | Structure (SMILES) | pest or weed control at 2241.7 g/ha (Monocots [1]) [%] | pest or weed control at 4483.4 g/ha (Monocots [1]) [%] | pest or weed control at 2241.7 g/ha (Dicots [2]) [%] | pest or weed control at 4483.4 g/ha (Dicots [2]) [%] | pest or weed control at 2241.7 g/ha (Dicots [3]) [%] | pest or weed control at 4483.4 g/ha (Dicots [3]) [%] | pest or weed control at 2241.7 g/ha (Monocots [4]) [%] | pest or weed control at 4483.4 g/ha (Monocots [4]) [%]
1 | O=[N+]([O-])c1ccc(Oc2ccc(C(F)(F)F)cc2Cl)cc1OCC(O)CO (stereo not drawn) [Example 39, 2-chloro-α,α,α-trifluoro-p-tolyl-3-(2,3-dihydroxypropoxy)-4-nitrophenyl ether] | 77 | 65 | 100 | 98 | 80 | 99 | 61 | 64
2 | CCCN(CCC)c1cc(Oc2ccc(C(F)(F)F)cc2Cl)ccc1[N+](=O)[O-] [Example 41] | 84 | 60 | 94 | 95 | 62 | 96 | 56 | 71
3 | CS(=O)(=O)CCOc1cc(Oc2ccc(C(F)(F)F)cc2Cl)ccc1[N+](=O)[O-] [Example 42] | 83 | 62 | 88 | 98 | 60 | 80 | 63 | 38
4 | CN(CCO)c1cc(Oc2ccc(C(F)(F)F)cc2Cl)ccc1[N+](=O)[O-] [Example 43] | 99 | 0 | 80 | 47 | 100 | 48 | 61 | 2
5 | CNC(=O)Nc1cc(Oc2ccc(C(F)(F)F)cc2Cl)ccc1[N+](=O)[O-] [Example 44] | 0 | 66 | 10 | 98 | 17 | 96 | 7 | 60
6 | CCSC(=O)Nc1cc(Oc2ccc(C(F)(F)F)cc2Cl)ccc1[N+](=O)[O-] [Example 45] | 68 | 13 | 78 | 88 | 77 | 58 | 53 | 17
7 | CCSC(=O)N(C(=O)SCC)c1cc(Oc2ccc(C(F)(F)F)cc2Cl)ccc1[N+](=O)[O-] [Example 46] | 34 | 0 | 4 | 30 | 87 | 20 | 0 | 0
8 | N#Cc1cc(Oc2ccc(C(F)(F)F)cc2Cl)ccc1[N+](=O)[O-] [Example 47, 2-Chloro-α,α,α-trifluoro-p-tolyl-3-cyano-4-nitrophenyl ether] | 80 | 61 | 84 | 72 | 80 | 40 | 24 | 11
9 | CC(Oc1cc(Oc2ccc(C(F)(F)F)cc2Cl)ccc1[N+](=O)[O-])C(N)=O (stereo not drawn) [Example 51, 2-chloro-α,α,α-trifluoro-p-tolyl-3-(1-carbamoylethoxy)-4-nitrophenyl ether] | 96 | 79 | 98 | 100 | 100 | 100 | 86 | 75
10 | CCN(C(=O)NC)c1cc(Oc2ccc(C(F)(F)F)cc2Cl)ccc1[N+](=O)[O-] [Example 55, 2-Chloro-α,α,α-trifluoro-p-tolyl-3-(3-methyl-1-ethylureido)-4-nitrophenyl ether] | – | 91 | 96 | 95 | – | 73 | 31 | 69
